This note sets out measurements from ChEMBL document CHEMBL4190211, “Biosynthesis of Fluorinated Peptaibols Using a Site-Directed Building Block Incorporation Approach” (J Nat Prod, 2017).

The structures appear in SMILES notation. Square brackets hold non-standard residues; d marks the D form. Peptide text beside a SMILES is read from it. * marks the point of attachment. Phe(ol) = N[C@H](CO)Cc1ccccc1; X1 = OC[C@H](Cc1cccc(F)c1)N*; X2 = OC[C@H](Cc1ccccc1F)N*; Aib = CC(C)(N)C(=O)O

In one experiment the test system is OVCAR-3. Kind of experiment: Cytotoxicity against human OVCAR3 cells assessed as decrease in cell viability after 72 hrs by CellTiter 96 AQueous one solution cell proliferation assay. It is filed as functional, cell-based. Conditions: OVCAR-3, 72 h.
The subject of the next experiment is MDA-MB-231. Kind of experiment: Cytotoxicity against human MDA-MB-231 cells assessed as decrease in cell viability after 72 hrs by CellTiter 96 AQueous one solution cell proliferation assay. The note with it: MDA-MB-231, 72 h.
The subject of another experiment is MDA-MB-435. Put plainly: Cytotoxicity against human MDA-MB-435 cells assessed as decrease in cell viability after 72 hrs by CellTiter 96 AQueous one solution cell proliferation assay. The class given is functional, cell-based. The note with it: MDA-MB-435, 72 h.

As to `CC(=O)NC(C)(C)C(=O)N[C@@H](C)C(=O)NC(C)(C)C(=O)N[C@@H](C)C(=O)NC(C)(C)C(=O)N[C@@H](C)C(=O)N[C@@H](CCC(N)=O)C(=O)NC(C)(C)C(=O)N[C@H](C(=O)NC(C)(C)C(=O)NCC(=O)N[C@@H](CC(C)C)C(=O)NC(C)(C)C(=O)N1CCC[C@H]1C(=O)N[C@H](C(=O)NC(C)(C)C(=O)NC(C)(C)C(=O)N[C@@H](CCC(N)=O)C(=O)N[C@@H](CCC(N)=O)C(=O)N[C@H](CO)Cc1cccc(F)c1)C(C)C)C(C)C` (Ac-[Aib]A[Aib]A[Aib]AQ[Aib]V[Aib]GL[Aib]PV[Aib][Aib]QQ-X1), the IC50 in the experiment with OVCAR-3 is 4.4 µM. `CC(=O)NC(C)(C)C(=O)N[C@@H](C)C(=O)NC(C)(C)C(=O)N[C@@H](C)C(=O)NC(C)(C)C(=O)N[C@@H](C)C(=O)N[C@@H](CCC(N)=O)C(=O)NC(C)(C)C(=O)N[C@H](C(=O)NC(C)(C)C(=O)NCC(=O)N[C@@H](CC(C)C)C(=O)NC(C)(C)C(=O)N1CCC[C@H]1C(=O)N[C@H](C(=O)NC(C)(C)C(=O)NC(C)(C)C(=O)N[C@@H](CCC(N)=O)C(=O)N[C@@H](CCC(N)=O)C(=O)N[C@H](CO)Cc1ccccc1F)C(C)C)C(C)C` (Ac-[Aib]A[Aib]A[Aib]AQ[Aib]V[Aib]GL[Aib]PV[Aib][Aib]QQ-X2): the 50% inhibitory concentration (IC50) with OVCAR-3 was 5 µM.

On to `CC(=O)NC(C)(C)C(=O)N[C@@H](C)C(=O)NC(C)(C)C(=O)N[C@@H](C)C(=O)NC(C)(C)C(=O)N[C@@H](C)C(=O)N[C@@H](CCC(N)=O)C(=O)NC(C)(C)C(=O)N[C@H](C(=O)NC(C)(C)C(=O)NCC(=O)N[C@@H](CC(C)C)C(=O)NC(C)(C)C(=O)N1CCC[C@H]1C(=O)N[C@H](C(=O)NC(C)(C)C(=O)NC(C)(C)C(=O)N[C@@H](CCC(N)=O)C(=O)N[C@@H](CCC(N)=O)C(=O)N[C@H](CO)Cc1ccccc1)C(C)C)C(C)C` (Ac-[Aib]A[Aib]A[Aib]AQ[Aib]V[Aib]GL[Aib]PV[Aib][Aib]QQ[Phe(ol)]), for which the half-maximal inhibitory concentration (IC50) in the experiment with MDA-MB-231 stood at 5.1 µM; with MDA-MB-435 it was 4.8 µM; in the experiment with OVCAR-3, 5.1 µM. On to `CC(=O)O[C@H]1C(=O)[C@@]2(C)[C@H]([C@H](OC(=O)c3ccccc3)[C@]3(O)C[C@H](OC(=O)[C@H](O)[C@@H](NC(=O)c4ccccc4)c4ccccc4)C(C)=C1C3(C)C)[C@]1(OC(C)=O)CO[C@@H]1C[C@@H]2O` [PACLITAXEL], for which the IC50 with OVCAR-3 is 0.002 µM.
